The test system of assay [1] is CDK6 expression in PTEN knockdown cells. Put plainly: Immunoblotting of CDK6 expression in PTEN knockdown cells. The format is cell-based, human. Also on record: dose or concentration left out as unconfirmed. The conditions noted are these: MK-2206 as printed. The method, then: Cell lysates were collected in RIPA buffer (Thermo Fisher Scientific) supplemented with protease and phosphatase inhibitors (Pierce). Protein concentration was quantified by using the BCA kit (Fisher Scientific). […] of protein lysates were loaded onto 4-12% SDS-PAGE gels (Invitrogen) for electrophoresis and transferred onto nitrocellular membranes. Blots were blocked with Intercept™ (TBS) Blocking Buffer (LI-COR Bioscience #927-60001) and incubated with primary antibody at 4° C. overnight. Secondary antibodies conjugated with fluorescence (LI-COR Bioscience #926-68071 and #926-32210) were incubated for 1 h at room temperature and blots were scanned by Odyssey Clx Imaging System from LI-COR Bioscience.

The target in another assay is CDK6 (Homo sapiens, UniProt Q00534). Put plainly: IP-in vitro kinase assay (ADP-Glo, Rb substrate) of immunoprecipitated CDK6. Set-up: Upregulation of wild-type CDK6 expression as a recurrent mechanism; endogenous in cells; host or cells: MCF-7 FAT1 CRISPR knockout (CDK6-high) cells. It counts as biochemical. The conditions noted are these: IP-CDK6 from resistant CDK6-high (FAT1 loss) MCF7 cells, pre-treatment with 100 nM abemaciclib. Here is the method: IP-in vitro kinase assay. […] Lysates were collected as described above. […] of cell lysates were incubated with […] CDK4 (# sc-23896, Santa Cruz Biotechnology) or CDK6 (# sc-177-G, Santa Cruz Biotechnology) antibody at 4° C. overnight. 20 μl of ChIP-grade magnetic beads (Thermo Fisher Scientific) was added into each IP tube and incubated for 2 hours. IP samples were washed 2 times with kinase lysis buffer and 2 times with kinase reaction buffer (40 mM Tris-HCl [pH 7.5], 20 mM MgCl2, 0.1 mg/ml BSA, from SignalChem, #K03-09, with […] DTT adding freshly). 100 μl of kinase reaction buffer with 0.5 μg of recombinant human Rb1 protein and 100 μM of ATP was added into each tube.
CDK6, sequence (Q00534 whole entry): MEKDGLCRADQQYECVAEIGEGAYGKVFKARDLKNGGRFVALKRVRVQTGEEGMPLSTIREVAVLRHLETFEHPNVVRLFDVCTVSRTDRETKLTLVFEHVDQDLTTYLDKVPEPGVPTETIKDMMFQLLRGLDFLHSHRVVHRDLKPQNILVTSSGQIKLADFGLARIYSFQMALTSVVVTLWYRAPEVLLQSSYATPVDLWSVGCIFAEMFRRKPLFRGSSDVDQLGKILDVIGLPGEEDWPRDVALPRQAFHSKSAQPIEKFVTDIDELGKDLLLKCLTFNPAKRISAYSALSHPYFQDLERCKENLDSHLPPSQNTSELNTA
CDK6, sequence (P30281 whole entry partner): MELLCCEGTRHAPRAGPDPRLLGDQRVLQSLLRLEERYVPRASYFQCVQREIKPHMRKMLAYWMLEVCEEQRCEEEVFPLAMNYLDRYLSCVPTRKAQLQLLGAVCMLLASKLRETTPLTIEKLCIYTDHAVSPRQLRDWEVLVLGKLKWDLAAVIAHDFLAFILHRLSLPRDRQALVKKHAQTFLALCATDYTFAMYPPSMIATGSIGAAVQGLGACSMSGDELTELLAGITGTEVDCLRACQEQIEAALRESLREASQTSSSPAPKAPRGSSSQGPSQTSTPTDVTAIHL

Take `NC1(c2ccc(-c3nc4ccn5c(=O)[nH]nc5c4cc3-c3ccccc3)cc2)CCC1` [MK-2206]: the CDK6 expression entry in assay [1] was “suppressed the expression of CDK6”.

Regarding `CCN1CCN(Cc2ccc(Nc3ncc(F)c(-c4cc(F)c5nc(C)n(C(C)C)c5c4)n3)nc2)CC1` [abemaciclib], at CDK6, the “CDK6 activity reduced compared to untreated” value was 48%.

Source of the values: US20250144099A1, “INK4 TUMOR SUPPRESSOR PROTEINS MEDIATE RESISTANCE TO CDK4/6 KINASE INHIBITORS” (MEMORIAL SLOAN-KETTERING CANCER CENTER, priority 2021, published 2025).
